{
  "source": "ChEMBL document CHEMBL1201862",
  "about": "“PubChem BioAssay data set” (2004)",
  "key": {"[1]": {"target": "T1, Carboxy-terminal domain RNA polymerase II polypeptide A small phosphatase 1 (Homo sapiens, UniProt Q9GZU7)", "T1 sequence (Q9GZU7 whole entry)": "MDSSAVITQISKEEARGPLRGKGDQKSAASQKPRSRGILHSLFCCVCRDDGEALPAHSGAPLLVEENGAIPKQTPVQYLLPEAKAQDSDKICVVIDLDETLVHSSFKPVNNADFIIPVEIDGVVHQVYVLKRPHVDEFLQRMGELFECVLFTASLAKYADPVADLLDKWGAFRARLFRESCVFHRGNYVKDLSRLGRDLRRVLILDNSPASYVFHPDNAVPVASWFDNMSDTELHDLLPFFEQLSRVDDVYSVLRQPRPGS", "test": "CTDSP1 inhibitors, concentration-response, biochemical, absorbance readout, ultra-high-throughput screen actives (AID 540297)", "assay_type": "functional"}, "[2]": {"target": "E3 ubiquitin-protein ligase Mdm2 (Homo sapiens, UniProt Q00987)", "sequence (Q00987 whole entry)": "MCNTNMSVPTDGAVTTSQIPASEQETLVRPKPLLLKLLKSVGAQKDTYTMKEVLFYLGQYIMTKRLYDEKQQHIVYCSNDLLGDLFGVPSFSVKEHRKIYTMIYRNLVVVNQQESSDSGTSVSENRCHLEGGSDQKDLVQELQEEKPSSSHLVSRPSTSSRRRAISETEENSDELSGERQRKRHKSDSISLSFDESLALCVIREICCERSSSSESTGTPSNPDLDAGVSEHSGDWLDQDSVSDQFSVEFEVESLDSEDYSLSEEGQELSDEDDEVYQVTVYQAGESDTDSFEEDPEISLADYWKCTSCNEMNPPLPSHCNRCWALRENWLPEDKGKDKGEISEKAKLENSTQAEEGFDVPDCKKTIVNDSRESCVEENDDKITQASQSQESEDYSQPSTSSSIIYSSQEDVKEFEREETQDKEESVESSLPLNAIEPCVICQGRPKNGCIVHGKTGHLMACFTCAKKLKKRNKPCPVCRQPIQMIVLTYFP", "test": "MDM2-luc reporter signal enhancers, multi-concentration potency testing, MDM2 ubiquitin-protein ligase inhibitor program, whole-cell format, luminescence detection, 384-well microplate (AID 1394);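 further: MDM2 E3 inhibitors raise luminescence so EC50 is for signal enhancement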", "assay_type": "functional"}, "Coagulation factor XII": {"target": "T2, Coagulation factor XII (Homo sapiens, UniProt P00748)", "T2 sequence (P00748 whole entry)": "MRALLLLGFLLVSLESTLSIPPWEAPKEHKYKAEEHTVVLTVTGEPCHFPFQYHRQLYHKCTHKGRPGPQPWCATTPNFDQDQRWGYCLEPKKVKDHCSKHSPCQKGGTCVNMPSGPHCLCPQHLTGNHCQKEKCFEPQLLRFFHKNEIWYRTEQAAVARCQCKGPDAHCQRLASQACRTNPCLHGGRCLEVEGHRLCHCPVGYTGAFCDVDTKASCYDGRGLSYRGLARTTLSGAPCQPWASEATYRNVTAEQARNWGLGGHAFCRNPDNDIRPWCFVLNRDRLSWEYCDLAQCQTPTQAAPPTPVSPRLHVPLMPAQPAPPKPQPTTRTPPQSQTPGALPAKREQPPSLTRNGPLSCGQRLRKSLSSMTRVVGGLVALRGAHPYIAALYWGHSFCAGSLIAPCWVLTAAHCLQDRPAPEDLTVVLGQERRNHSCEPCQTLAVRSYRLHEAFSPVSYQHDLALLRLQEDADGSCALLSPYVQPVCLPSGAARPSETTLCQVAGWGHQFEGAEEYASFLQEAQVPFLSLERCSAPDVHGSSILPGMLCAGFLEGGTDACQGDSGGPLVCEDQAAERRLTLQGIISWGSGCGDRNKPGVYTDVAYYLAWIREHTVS", "assay_type": "functional"}, "[3]": {"target": "Mitogen-activated protein kinase 10 (Homo sapiens, UniProt P53779)", "sequence (P53779 whole entry)": "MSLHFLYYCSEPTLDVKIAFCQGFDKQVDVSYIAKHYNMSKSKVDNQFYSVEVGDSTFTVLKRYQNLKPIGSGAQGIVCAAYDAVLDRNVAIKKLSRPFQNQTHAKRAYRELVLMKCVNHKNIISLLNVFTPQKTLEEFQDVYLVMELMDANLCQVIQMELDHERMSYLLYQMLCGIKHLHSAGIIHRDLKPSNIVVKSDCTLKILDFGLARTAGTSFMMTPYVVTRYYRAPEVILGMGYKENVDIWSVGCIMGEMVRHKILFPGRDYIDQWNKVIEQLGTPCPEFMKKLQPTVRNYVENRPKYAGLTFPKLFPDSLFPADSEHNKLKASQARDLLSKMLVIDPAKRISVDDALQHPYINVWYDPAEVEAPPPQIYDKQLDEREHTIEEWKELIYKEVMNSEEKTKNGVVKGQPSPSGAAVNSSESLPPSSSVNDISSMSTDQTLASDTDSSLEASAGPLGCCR", "test": "Dose response biochemical screening assay for inhibitors of c-Jun N-Terminal Kinase 3 (JNK3). [Related pubchem assays: 746 ]"}, "[4]": {"target": "T3, Mannose-6-phosphate isomerase (Homo sapiens, UniProt P34949)", "T3 sequence (P34949 whole entry)": "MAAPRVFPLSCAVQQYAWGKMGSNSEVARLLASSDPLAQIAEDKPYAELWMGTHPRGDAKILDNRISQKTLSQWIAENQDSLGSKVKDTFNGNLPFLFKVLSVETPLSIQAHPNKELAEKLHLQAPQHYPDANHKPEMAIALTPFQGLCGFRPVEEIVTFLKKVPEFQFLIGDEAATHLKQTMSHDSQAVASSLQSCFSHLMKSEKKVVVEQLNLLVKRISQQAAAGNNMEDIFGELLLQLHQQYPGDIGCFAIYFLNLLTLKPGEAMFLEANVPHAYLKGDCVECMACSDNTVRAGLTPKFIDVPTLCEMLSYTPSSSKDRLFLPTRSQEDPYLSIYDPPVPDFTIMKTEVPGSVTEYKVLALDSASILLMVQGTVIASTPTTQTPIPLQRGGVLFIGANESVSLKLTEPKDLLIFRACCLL", "test": "MPI inhibition at elevated mannose 6-phosphate – biochemical, fluorescence intensity, high mannose 6-phosphate, primary screen (AID 1220)"}, "Nonstructural protein 1": {"target": "Nonstructural protein 1 (Influenza A virus, UniProt Q194T2)", "sequence (Q194T2 whole entry)": "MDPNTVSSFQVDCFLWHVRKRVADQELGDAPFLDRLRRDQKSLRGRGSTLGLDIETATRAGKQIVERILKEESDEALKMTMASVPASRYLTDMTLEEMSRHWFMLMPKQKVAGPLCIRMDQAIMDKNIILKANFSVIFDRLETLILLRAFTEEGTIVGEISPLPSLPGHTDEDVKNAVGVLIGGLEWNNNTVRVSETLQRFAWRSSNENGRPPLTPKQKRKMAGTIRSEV", "assay_type": "functional, Influenza A virus (A/California/07/2009(H1N1))"}, "SUMO-activating enzyme [5]": {"target": "T4, SUMO-activating enzyme (Homo sapiens, UniProt Q9UBT2)", "T4 sequence (Q9UBE0 whole entry)": "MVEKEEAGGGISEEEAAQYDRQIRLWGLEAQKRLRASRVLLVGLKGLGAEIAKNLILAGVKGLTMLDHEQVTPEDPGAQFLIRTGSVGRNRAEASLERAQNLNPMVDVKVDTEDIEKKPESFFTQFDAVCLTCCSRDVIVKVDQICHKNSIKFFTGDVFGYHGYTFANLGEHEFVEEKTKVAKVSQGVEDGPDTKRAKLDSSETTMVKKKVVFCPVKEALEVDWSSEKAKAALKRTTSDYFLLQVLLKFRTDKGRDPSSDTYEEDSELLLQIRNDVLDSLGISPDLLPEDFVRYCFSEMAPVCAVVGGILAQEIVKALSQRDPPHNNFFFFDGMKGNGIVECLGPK", "T4 sequence (Q9UBT2 whole entry)": "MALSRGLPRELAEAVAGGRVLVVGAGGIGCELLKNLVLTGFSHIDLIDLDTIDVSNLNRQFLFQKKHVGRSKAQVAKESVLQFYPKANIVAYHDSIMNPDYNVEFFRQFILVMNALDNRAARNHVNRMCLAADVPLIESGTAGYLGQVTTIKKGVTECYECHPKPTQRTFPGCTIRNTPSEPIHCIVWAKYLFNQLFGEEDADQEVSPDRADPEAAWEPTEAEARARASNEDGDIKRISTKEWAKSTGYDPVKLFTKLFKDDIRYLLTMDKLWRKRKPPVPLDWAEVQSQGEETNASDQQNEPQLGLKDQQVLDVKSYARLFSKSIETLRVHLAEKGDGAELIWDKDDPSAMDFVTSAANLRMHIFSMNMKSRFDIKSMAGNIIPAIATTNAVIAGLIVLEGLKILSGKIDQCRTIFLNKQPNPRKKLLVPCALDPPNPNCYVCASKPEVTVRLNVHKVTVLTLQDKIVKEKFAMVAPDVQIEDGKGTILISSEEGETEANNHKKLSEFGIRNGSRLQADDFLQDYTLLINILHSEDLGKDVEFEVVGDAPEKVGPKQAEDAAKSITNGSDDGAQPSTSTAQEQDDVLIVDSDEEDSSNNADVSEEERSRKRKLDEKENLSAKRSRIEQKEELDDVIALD", "test": "blockers of SAE1/SAE2–UBC9 SUMO transfer – biochemical, HTRF, uHTS, primary screen (AID 2006)", "assay_type": "protein-complex assay"}, "[6]": {"target": "Bifunctional protein GlmU (Mycobacterium tuberculosis, UniProt P9WMN3)", "sequence (P9WMN3 whole entry)": "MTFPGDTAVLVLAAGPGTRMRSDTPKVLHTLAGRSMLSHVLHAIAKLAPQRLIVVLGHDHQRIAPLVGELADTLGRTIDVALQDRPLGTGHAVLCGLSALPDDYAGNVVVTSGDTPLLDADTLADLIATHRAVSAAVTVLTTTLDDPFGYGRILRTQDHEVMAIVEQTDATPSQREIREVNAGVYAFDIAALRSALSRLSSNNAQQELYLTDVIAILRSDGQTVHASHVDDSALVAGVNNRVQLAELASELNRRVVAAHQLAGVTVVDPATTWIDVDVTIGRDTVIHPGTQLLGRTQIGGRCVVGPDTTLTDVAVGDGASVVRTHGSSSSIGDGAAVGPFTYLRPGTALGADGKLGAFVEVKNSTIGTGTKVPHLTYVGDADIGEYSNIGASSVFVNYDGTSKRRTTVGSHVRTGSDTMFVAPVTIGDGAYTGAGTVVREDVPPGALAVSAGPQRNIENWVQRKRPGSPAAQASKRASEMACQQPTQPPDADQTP", "test": "Inhibitors of Mycobacterial Glucosamine-1-phosphate acetyl transferase (GlmU). Secondary screen.", "set-up": "species or system Mycobacterium tuberculosis H37Rv"}, "SUMO-activating enzyme [7]": {"target": "T4, SUMO-activating enzyme", "test": "blockers of UBC9-mediated SUMO conjugation – biochemical, AlphaScreen, SUMOylation inhibitor project, confirmation (AID 2018)", "assay_type": "functional"}, "Paired box protein Pax-8": {"target": "Paired box protein Pax-8 (Homo sapiens, UniProt Q06710)", "sequence (Q06710 whole entry)": "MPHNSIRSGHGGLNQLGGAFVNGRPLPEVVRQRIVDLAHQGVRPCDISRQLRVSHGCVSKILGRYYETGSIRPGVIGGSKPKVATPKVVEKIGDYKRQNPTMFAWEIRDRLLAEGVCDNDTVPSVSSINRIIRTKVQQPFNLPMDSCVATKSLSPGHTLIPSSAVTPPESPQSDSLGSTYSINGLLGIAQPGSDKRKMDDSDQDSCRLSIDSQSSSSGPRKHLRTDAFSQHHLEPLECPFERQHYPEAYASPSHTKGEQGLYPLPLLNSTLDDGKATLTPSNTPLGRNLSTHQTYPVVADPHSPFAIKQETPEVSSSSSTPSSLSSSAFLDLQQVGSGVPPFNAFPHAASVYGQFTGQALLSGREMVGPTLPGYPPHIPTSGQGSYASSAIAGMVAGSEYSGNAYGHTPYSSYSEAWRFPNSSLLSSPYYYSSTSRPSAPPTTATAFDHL", "test": "PAX8 transcriptional activity inhibition in RMG-I – RMG-I cells, luciferase, cherry-pick, dose response (AID 687027);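 further: luciferase reporter driven by Pax8 target thyroperoxidase promoter measured by SteadyGlo luminescence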", "assay_type": "functional, cell-based"}, "[8]": {"target": "T5, Heat shock factor protein 1 (Mus musculus, UniProt P38532)", "T5 sequence (P38532 whole entry)": "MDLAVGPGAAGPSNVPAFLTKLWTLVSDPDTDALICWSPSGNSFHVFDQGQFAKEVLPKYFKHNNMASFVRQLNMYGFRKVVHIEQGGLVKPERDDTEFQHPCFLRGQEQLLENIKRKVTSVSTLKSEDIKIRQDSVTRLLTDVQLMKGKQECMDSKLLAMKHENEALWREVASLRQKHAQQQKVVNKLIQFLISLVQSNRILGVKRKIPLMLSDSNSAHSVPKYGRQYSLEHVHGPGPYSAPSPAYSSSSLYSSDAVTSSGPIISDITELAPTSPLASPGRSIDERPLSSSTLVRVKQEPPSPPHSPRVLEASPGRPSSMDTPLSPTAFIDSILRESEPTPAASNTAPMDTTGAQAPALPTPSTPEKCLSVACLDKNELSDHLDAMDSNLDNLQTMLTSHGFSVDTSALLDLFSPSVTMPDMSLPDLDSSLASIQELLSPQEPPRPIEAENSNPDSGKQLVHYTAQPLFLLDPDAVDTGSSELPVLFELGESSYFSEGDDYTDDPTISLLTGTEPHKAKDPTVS", "test": "decrease of HSF1-responsive luciferase luminescence – cell-based, NIH3T3, dose retest, confirmation (AID 2382);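 further: NIH3T3 fibroblasts with HSF1-driven luciferase reporter stressed by proteasome inhibitor MG132; luminescence from HSF1-driven luciferase expression after 8 hours of MG132 stress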", "assay_type": "functional"}, "[9]": {"test": "blockers of HIV-1 ZM109 envelope-driven cell-cell fusion – HeLa effector, CEM target cells, luciferase, cherry-pick, dose response (AID 652058)", "assay_type": "functional, cell-based"}, "[10]": {"test": "off-target signal loss in HeLa-CEM21 co-culture – HeLa F-luc CTL cells, cherry-picked, counter-screen for HIV-1 Env fusion inhibitor project, dose response (AID 652040);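 further: potency for signal decrease marking cytotoxic or nonspecific inhibition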", "assay_type": "functional, cell-based"}, "[11]": {"test": "HIV-1 AD8 envelope cell-cell fusion blockers – cherry-pick, dose response (AID 652062);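 further: potency is for inhibitors of fusion seen as a drop in luminescence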", "assay_type": "functional, cell-based"}, "[12]": {"test": "viability loss in HEK293 cells – cell-based, plate reader, cherry-picked samples, cytotoxicity control, dose response (AID 743446)", "assay_type": "functional"}, "Jurkat": {"system": "Jurkat", "test": "blockers of NF-kB activation in T cells – Jurkat, luciferase reporter, luminescence, B- and T-cell, dose response (AID 489004);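 further: NF-kB luciferase reporter Jurkat cells stimulated with PMA plus ionomycin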", "assay_type": "functional, cell-based", "conditions": "Homo sapiens"}, "[13]": {"test": "blockers of bursicon-stimulated LGR2 cAMP reporter – cell-based, HEK293, CRE-luciferase reporter, cherry pick, set 2, dose response (AID 743343);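 further: transfected cells were stimulated with diluted bursicon conditioned medium after compound addition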", "assay_type": "functional"}, "[14]": {"target": "Heat shock protein HSP 90-alpha (Homo sapiens, UniProt P07900)", "test": "Luminescence-based dose response biochemical high throughput screening assay for inhibitors of the Heat Shock Protein 90 (HSP90). [Related pubchem assays: 1831 (Summary AID.), 1846 (Confirmation screen.), 1789 (Primary screen.)]"}, "[15]": {"test": "A549 cell cytotoxicity, dose response, cytotoxicity control, plate reader, cherry-pick, antagonist series (AID 743412)", "assay_type": "functional, cell-based"}, "[16]": {"test": "HEK-293T viability loss, compound-treated – cell-based, uHTS hits, cytotoxicity control for B/T-cell NF-kB inhibitor project, dose response (AID 489019);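 further: IC50 reflects cytotoxicity as loss of cell viability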", "assay_type": "functional"}, "[17]": {"test": "blockade of melanocortin 4 receptor signaling – cell-based, plate reader, cherry pick, counter-screen for LGR2 antagonist project, dose response (AID 743444);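 further: transfected HEK 293 cells stimulated with alpha-MSH peptide; potency of inhibitors of the alpha-MSH evoked signal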", "assay_type": "functional"}, "[18]": {"test": "blockers of HIV-1 envelope-mediated cell-cell fusion – cherry-pick, dose response (AID 652057)", "assay_type": "functional, cell-based"}, "[19]": {"target": "T6, Tyrosine-protein phosphatase non-receptor type 7 (Homo sapiens, UniProt P35236)", "T6 sequence (P35236 whole entry)": "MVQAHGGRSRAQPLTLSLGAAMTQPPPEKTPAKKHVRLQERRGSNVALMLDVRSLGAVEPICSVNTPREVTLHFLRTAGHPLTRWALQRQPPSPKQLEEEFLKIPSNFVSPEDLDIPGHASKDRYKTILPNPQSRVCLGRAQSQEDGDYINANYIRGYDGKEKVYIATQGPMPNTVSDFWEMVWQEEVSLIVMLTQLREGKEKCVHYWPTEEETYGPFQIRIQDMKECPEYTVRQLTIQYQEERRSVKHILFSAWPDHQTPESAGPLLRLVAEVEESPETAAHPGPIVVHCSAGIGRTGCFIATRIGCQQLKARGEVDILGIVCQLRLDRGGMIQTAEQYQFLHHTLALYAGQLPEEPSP", "test": "HePTP tyrosine phosphatase activity blockers – biochemical, absorbance, leukemia target, primary screen (AID 521)", "assay_type": "functional"}},
  "note": "The source made the active and inactive calls.",
  "data": [
    {"smiles": "O=C1CCN(Cc2ccccc2)S(=O)(=O)c2ccccc21", "values": [
      {"measurement": "IC50", "setting": "[1]", "value": "39.3 µM (active)"},
      {"measurement": "EC50", "setting": "[2]", "value": "3.06 µM (not active)"}
    ]},
    {"smiles": "NC(=O)c1c(NC(=O)C2CCCO2)sc2c1CCC2", "note": "(stereo not drawn)", "values": [
      {"measurement": "IC50", "setting": "Coagulation factor XII", "value": "> 50 µM (inactive)"},
      {"measurement": "IC50", "setting": "[3]", "value": "42.5 µM (not active)"}
    ]},
    {"smiles": "Nc1ccccc1NC1CCCCC1", "values": [
      {"measurement": "IC50", "setting": "[4]", "value": "> 50 µM (not active)"},
      {"measurement": "IC50", "setting": "Nonstructural protein 1", "value": "64.8 µM (active)"}
    ]},
    {"smiles": "N#C/C(=C/c1ccc(-c2cc(C(=O)O)cc(C(=O)O)c2)o1)c1nc2ccccc2s1", "values": [
      {"measurement": "IC50", "setting": "SUMO-activating enzyme [5]", "value": "15.9 µM (active)"},
      {"measurement": "IC50", "setting": "[6]", "value": "19.1 µM (active)"},
      {"measurement": "IC50", "setting": "SUMO-activating enzyme [7]", "value": "2.81 µM (active)"}
    ]},
    {"smiles": "O=C(CN1C(=O)c2ccccc2S1(=O)=O)c1ccc2c(c1)OCCO2", "values": [
      {"measurement": "AC50", "setting": "Paired box protein Pax-8", "value": "1.64 µM (active)"},
      {"measurement": "EC50", "setting": "[8]", "value": "0.418 µM (active)"},
      {"measurement": "AC50", "setting": "[9]", "value": "1.08 µM (active)"},
      {"measurement": "AC50", "setting": "[10]", "value": "0.556 µM (active)"},
      {"measurement": "AC50", "setting": "[11]", "value": "< 0.26 µM (active)"},
      {"measurement": "AC50", "setting": "[12]", "value": "> 52 µM (inactive)"},
      {"measurement": "IC50", "setting": "Jurkat", "value": "0.17 µM (active)"},
      {"measurement": "AC50", "setting": "[13]", "value": "0.126 µM (active)"},
      {"measurement": "IC50", "setting": "[14]", "value": "1.39 µM (active)"},
      {"measurement": "AC50", "setting": "[15]", "value": "22.9 µM (active)"},
      {"measurement": "IC50", "setting": "[16]", "value": "> 80 µM (inactive)"},
      {"measurement": "AC50", "setting": "[17]", "value": "0.206 µM (active)"},
      {"measurement": "AC50", "setting": "[18]", "value": "0.339 µM (active)"}
    ]},
    {"smiles": "CC(=O)Oc1oc(-c2ccccc2)nc1/C=N/c1ccccn1", "values": [
      {"measurement": "IC50", "setting": "[19]", "value": "> 100 µM (not active)"}
    ]}
  ]
}
